The target in assay [1] is T1, DNA dC->dU-editing enzyme APOBEC-3A (Homo sapiens, UniProt P31941). As to the kind of experiment: APOBEC3A DNA deaminase inhibitors, dose response, biochemical (AID 504722). In kind it is functional.
Assay [2] deals with T2, DNA dC->dU-editing enzyme APOBEC-3G (Homo sapiens, UniProt Q9HC16). The assay is described as follows: Dose Response confirmation of small molecule APOBEC3G DNA Deaminase Inhibitors via a fluorescence-based single-stranded DNA deaminase assay. [Related pubchem assays (depositor defined):AID493012, AID493028]. Type of assay: functional.
T2 sequence (Q9HC16 whole entry): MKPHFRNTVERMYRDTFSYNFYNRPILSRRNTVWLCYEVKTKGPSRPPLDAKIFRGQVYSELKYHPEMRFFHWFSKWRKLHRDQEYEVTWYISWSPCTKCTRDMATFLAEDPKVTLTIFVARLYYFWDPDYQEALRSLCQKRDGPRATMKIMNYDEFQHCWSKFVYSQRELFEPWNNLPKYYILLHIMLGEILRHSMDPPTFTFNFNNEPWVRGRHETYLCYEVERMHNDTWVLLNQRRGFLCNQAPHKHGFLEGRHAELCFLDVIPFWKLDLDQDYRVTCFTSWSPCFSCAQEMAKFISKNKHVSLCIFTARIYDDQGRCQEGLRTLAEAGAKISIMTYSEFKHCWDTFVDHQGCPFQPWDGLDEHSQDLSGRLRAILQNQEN
Assay [3] deals with T3, Alkaline phosphatase, tissue-nonspecific isozyme (Homo sapiens, UniProt P05186).
T3 sequence (P05186 whole entry): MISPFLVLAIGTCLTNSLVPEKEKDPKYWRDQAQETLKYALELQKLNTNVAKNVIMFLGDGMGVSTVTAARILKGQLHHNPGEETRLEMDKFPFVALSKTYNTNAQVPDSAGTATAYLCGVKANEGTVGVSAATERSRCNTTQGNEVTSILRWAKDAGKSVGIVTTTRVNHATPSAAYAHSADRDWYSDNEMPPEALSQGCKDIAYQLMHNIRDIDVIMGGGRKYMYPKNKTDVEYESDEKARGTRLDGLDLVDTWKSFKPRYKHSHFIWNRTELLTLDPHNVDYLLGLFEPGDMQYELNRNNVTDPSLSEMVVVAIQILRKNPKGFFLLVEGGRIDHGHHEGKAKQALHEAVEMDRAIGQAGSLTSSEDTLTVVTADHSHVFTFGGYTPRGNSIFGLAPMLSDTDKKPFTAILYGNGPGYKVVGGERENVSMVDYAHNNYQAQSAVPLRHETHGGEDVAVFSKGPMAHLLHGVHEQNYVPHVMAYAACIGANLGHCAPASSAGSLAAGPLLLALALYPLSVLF

Assay [4] in a line: inhibitors of intracellular T. cruzi replication, confirmation, NIH3T3 host cells, beta-gal luminescence (AID 2044).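 Note: intracellular parasites grown in NIH/3T3 mouse fibroblasts as host cells; luminescent beta-galactosidase reporter signal from transgenic T. cruzi replicating inside host cells; inhibitors lower the luminescence signal.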 In kind it is functional, cell-based.
The nature of assay [5]: cytotoxicity toward NIH3T3 fibroblasts, dose response, counter-screen, cell-based, ATP luminescence, mouse fibroblasts (AID 2010).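 Note: cells exposed to compound for about 90 hours before reading.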 In kind it is functional. On the technique in general: Counterscreens check selectivity or assay interference.
The target in assay [6] is Intestinal-type alkaline phosphatase (Homo sapiens, UniProt P09923). As to the kind of experiment: activation of human intestinal alkaline phosphatase – biochemical, dose response (AID 488873). Type of assay: functional.
Chain of Intestinal-type alkaline phosphatase (Homo sapiens, UniProt P09923) (P09923 whole entry): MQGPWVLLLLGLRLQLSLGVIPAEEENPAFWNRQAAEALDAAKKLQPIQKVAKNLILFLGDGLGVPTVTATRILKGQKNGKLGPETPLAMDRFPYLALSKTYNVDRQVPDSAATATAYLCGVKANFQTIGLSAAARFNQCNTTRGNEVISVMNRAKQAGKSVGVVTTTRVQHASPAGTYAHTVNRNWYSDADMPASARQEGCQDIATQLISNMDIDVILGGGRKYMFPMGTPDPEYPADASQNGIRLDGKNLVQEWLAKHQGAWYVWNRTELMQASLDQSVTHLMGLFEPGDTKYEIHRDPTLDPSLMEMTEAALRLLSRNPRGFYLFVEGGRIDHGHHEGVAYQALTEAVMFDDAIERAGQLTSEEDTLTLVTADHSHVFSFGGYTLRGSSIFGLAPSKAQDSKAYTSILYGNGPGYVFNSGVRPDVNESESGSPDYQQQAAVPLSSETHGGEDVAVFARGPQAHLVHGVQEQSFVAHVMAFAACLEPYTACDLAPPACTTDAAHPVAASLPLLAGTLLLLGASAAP
The target of assay [7] is Intestinal-type alkaline phosphatase (Mus musculus, UniProt P24822). As to the kind of experiment: PubChem AID 488785. In kind it is functional.
Chain of Intestinal-type alkaline phosphatase (Mus musculus, UniProt P24822) (P24822 whole entry): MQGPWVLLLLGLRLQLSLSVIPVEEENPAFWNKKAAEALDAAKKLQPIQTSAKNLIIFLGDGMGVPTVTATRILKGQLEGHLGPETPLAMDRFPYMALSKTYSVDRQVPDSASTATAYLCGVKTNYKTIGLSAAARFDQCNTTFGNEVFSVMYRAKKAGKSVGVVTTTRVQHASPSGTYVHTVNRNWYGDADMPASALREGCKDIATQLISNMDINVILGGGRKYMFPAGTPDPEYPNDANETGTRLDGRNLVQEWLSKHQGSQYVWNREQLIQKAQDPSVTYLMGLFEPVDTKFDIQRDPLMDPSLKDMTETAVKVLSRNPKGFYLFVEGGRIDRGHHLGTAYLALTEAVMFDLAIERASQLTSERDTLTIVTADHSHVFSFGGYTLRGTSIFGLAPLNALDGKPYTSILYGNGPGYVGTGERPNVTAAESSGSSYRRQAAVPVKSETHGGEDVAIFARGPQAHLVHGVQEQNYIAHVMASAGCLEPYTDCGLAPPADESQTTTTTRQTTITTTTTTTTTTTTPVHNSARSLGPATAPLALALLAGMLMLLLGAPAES
Assay [8] addresses T3, Alkaline phosphatase, tissue-nonspecific isozyme. The assay is described as follows: TNAP enzyme inhibition by screening hits, dose response, selectivity assay for mouse IAP inhibitor project, biochemical, human TNAP, uHTS hits (AID 488906). In kind it is functional.
Assay [9] concerns the target T4, Mannose-6-phosphate isomerase (Homo sapiens, UniProt P34949).
T4 sequence (P34949 whole entry): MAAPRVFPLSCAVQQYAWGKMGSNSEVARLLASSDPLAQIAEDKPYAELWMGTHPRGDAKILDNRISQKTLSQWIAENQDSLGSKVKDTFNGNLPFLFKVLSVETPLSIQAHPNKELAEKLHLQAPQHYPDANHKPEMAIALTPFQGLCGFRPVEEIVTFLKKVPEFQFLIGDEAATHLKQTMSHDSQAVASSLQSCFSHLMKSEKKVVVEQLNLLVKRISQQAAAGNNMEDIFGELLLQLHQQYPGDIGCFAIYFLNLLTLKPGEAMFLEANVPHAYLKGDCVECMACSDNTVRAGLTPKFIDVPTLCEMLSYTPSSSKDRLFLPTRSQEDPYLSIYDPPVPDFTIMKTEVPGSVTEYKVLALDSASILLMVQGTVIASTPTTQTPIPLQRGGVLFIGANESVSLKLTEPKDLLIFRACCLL
As to the kind of experiment: PMI enzyme inhibitors, confirmation, biochemical, fluorescence intensity (AID 1535).

A further assay deals with T5, Phosphomannomutase 2 (Homo sapiens, UniProt O15305).
T5 sequence (O15305 whole entry): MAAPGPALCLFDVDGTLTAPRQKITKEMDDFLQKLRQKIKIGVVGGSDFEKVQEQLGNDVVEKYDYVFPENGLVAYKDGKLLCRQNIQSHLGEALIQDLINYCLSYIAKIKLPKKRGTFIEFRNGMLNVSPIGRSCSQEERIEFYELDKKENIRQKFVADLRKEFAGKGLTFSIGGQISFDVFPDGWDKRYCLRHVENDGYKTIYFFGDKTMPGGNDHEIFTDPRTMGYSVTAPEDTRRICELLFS
As to the kind of experiment: Counter screen SAR assay for PMM2 inhibitors via a fluorescence intensity assay. [Related pubchem assays (depositor defined):AID1545, AID1574].

Assay [10] concerns the target Phosphoethanolamine/phosphocholine phosphatase (Homo sapiens, UniProt Q8TCT1). The assay is described as follows: SAR assay for compounds that inhibit PHOSPHO1. [Related pubchem assays (depositor defined):AID1545, AID1565, AID1574].
Assay [11] has as its target G-protein coupled receptor 55 (Homo sapiens, UniProt Q9Y2T6). As to the kind of experiment: GPR55 antagonists blocking LPI-driven arrestin recruitment, primary screen, imaging, U2OS, beta-arrestin-GFP, LPI agonist (AID 2013).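 Note: antagonist potency measured as reduced agonist-driven arrestin aggregation.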 Type of assay: functional.
The next assay deals with Ion channel NompC (Danio rerio, UniProt Q7T1G6). As to the kind of experiment: Dose response cell-based high-throughput screening assay for agonists of the transient receptor potential channel N1 (TRPN1). [Related pubchem assays (depositor defined):AID1424, AID1448]. In kind it is functional.
In a further assay the target is Mucolipin-3 (Homo sapiens, UniProt Q8TDD5). As to the kind of experiment: Fluorescence counterscreen assay for […] agonists: dose response cell-based high-throughput screening assay to identify agonists of the transient receptor potential channel ML3 (TRPML3). [Related pubchem assays: 1424, 1448 ]. In kind it is functional.
Chain of Mucolipin-3 (Q8TDD5 whole entry): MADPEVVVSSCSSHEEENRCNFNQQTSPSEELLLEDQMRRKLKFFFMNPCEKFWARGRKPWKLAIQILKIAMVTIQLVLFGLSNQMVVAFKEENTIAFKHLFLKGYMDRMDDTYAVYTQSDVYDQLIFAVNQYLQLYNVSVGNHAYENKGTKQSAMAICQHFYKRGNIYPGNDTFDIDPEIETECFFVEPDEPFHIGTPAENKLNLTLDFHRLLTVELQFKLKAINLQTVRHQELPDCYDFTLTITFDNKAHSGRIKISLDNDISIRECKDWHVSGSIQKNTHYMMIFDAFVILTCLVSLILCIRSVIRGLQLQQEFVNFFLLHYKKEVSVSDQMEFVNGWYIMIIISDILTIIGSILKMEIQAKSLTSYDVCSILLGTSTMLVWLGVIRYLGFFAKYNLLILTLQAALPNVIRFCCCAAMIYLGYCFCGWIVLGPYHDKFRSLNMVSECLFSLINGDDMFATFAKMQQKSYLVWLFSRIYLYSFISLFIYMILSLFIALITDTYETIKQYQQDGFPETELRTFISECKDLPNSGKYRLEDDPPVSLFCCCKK
Assay [12] has as its target T1, DNA dC->dU-editing enzyme APOBEC-3A. As to the kind of experiment: Dose Response confirmation of small molecule APOBEC3A DNA Deaminase Inhibitors via a fluorescence-based single-stranded DNA deaminase assay. [Related pubchem assays (depositor defined):AID493011, AID493024]. In kind it is functional.
Assay [13] concerns the target T2, DNA dC->dU-editing enzyme APOBEC-3G. In kind it is functional.
Assay [14] is described as follows: cells. In kind it is functional, cell-based.
In assay [15] the target is T6, Nuclear receptor subfamily 0 group B member 1 (Homo sapiens, UniProt P51843).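 Note: HEK293T cells transfected with SF-1 and DAX-1 plus StAR promoter luciferase reporter.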
T6 sequence (P51843 whole entry): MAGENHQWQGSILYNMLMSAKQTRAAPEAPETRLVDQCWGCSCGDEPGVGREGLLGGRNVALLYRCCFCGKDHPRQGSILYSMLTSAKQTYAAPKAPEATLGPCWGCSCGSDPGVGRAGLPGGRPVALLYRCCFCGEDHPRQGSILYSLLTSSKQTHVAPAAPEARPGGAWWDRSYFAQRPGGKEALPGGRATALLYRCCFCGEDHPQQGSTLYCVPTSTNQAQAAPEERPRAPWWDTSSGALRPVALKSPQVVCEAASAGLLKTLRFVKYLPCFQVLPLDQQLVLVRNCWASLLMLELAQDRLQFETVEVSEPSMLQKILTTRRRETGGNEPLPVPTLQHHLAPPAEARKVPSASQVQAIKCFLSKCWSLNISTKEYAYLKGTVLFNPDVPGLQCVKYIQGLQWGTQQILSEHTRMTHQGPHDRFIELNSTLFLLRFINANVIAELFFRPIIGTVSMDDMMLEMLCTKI
Type of assay: functional, cell-based.

The nature of assay [16]: HepG2 cell cytotoxicity, dose response, cytotoxicity control, plate reader, cherry-pick, antagonist series (AID 743416). Type of assay: functional, cell-based.
Assay [17] in a line: LGR2 antagonists, dose response, cell-based, HEK293, CRE-luciferase reporter, cherry pick, set 2 (AID 743343).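 Note: transfected cells were stimulated with diluted bursicon conditioned medium after compound addition.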 In kind it is functional.
Assay [18] is described as follows: MC4R antagonists, dose response, counter-screen for LGR2 antagonist project, cell-based, plate reader, cherry pick (AID 743444).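 Note: transfected HEK 293 cells stimulated with alpha-MSH peptide; potency of inhibitors of the alpha-MSH evoked signal.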 In kind it is functional.
Another assay deals with Large T antigen (Simian virus 40, UniProt P03070). In kind it is functional, Betapolyomavirus macacae.
Chain of Large T antigen (P03070 whole entry): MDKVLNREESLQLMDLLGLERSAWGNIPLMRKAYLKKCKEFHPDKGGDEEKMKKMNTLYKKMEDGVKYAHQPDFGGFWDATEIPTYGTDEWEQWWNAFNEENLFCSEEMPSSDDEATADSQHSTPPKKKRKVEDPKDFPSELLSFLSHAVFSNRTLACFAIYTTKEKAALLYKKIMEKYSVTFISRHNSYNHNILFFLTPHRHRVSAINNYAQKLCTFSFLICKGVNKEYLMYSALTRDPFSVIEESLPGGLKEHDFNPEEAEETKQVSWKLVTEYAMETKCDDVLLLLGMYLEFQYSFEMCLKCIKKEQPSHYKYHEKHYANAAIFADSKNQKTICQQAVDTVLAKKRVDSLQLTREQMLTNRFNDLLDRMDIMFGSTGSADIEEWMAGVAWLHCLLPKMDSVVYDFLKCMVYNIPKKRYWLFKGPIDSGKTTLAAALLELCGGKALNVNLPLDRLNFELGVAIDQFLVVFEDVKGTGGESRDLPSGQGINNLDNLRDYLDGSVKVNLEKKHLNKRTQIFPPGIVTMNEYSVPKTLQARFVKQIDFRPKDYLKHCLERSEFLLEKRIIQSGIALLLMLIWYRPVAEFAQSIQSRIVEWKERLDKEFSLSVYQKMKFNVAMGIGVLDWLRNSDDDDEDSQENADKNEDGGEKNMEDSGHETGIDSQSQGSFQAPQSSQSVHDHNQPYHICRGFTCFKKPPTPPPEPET
The target in assay [19] is Glucose-6-phosphate 1-dehydrogenase (Homo sapiens, UniProt P11413). As to the kind of experiment: human G6PD enzyme inhibitors, dose response, selectivity assay for P. falciparum G6PD inhibitor project, biochemical, fluorescence (AID 504792). Type of assay: functional.
Chain of Glucose-6-phosphate 1-dehydrogenase (P11413 whole entry): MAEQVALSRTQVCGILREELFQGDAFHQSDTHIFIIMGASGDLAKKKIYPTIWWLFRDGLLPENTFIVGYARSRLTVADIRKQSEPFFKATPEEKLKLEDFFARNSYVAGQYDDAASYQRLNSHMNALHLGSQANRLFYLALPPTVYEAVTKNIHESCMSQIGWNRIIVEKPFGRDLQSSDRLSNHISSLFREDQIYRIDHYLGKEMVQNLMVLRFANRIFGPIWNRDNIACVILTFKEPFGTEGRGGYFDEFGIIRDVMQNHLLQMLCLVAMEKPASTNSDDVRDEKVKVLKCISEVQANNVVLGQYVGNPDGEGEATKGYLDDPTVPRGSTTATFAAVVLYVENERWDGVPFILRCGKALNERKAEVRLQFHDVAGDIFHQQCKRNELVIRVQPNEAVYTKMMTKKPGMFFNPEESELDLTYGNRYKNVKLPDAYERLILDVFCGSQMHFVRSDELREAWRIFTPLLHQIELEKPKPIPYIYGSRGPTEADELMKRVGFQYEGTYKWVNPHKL
Assay [20] has as its target Eukaryotic translation initiation factor 4E (Mus musculus, UniProt P63073). The assay is described as follows: eIF4E–eIF4G protein interaction inhibitors, dose response, biochemical, TR-FRET (AID 855).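 Note: potency for disrupting eIF4E binding to eIF4GI seen as loss of FRET.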 Type of assay: functional.
Assay [21] concerns the target T7, Carboxy-terminal domain RNA polymerase II polypeptide A small phosphatase 1 (Homo sapiens, UniProt Q9GZU7).
T7 sequence (Q9GZU7 whole entry): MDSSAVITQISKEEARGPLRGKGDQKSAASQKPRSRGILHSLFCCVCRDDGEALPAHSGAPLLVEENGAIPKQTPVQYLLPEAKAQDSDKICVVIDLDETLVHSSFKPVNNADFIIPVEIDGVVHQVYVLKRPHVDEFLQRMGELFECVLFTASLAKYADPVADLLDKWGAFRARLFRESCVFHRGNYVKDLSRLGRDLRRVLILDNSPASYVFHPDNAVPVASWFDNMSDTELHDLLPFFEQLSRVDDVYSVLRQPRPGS
The assay is described as follows: inhibitors of CTDSP1, concentration-response testing, biochemical assay, absorbance-based, actives from ultra-high-throughput screening (AID 540297). Type of assay: functional.

Assay [22] in a line: microbe, parasite or virus in culture. Type of assay: functional. The note with it: Mycobacterium tuberculosis.
Assay [23] is described as follows: THP-1 cell cytotoxicity, dose response, cytotoxicity control for non-replicating M. tuberculosis project (AID 489025). Type of assay: functional.
Assay [24] is described as follows: HepG2 cell cytotoxicity, dose response, cytotoxicity control for non-replicating M. tuberculosis project (AID 489018). Type of assay: functional. The note with it: Mycobacterium tuberculosis.
Assay [25] in a line: Vero E6 cell cytotoxicity, dose response, cytotoxicity control for non-replicating M. tuberculosis project, secondary assay (AID 492998). In kind it is functional, VeroE6. The note with it: Vero C1008.
The next assay addresses Nonstructural protein 1 (Influenza A virus, UniProt Q194T2). Type of assay: functional, Influenza A virus (A/California/07/2009(H1N1)).
The nature of assay [26]: cells. In kind it is functional.
A short description of assay [27]: AlphaScreen signal interference compounds, dose response, artefact control for ARNT-TACC3 interaction inhibitor project, biochemical, luminescence, cherry-pick (AID 651705).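 Note: AlphaScreen bead proximity signal that flags compounds interfering with the detection technology; potency reflects signal decrease which marks the compound as an assay artifact.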 In kind it is functional. On the technique in general: Alpha assays give light when donor and acceptor beads are brought close together.

Here are results for nine molecules from ChEMBL document CHEMBL1201862, “PubChem BioAssay data set” (2004).

Calls of active or inactive are those of the source.

T1 sequence (P31941 whole entry): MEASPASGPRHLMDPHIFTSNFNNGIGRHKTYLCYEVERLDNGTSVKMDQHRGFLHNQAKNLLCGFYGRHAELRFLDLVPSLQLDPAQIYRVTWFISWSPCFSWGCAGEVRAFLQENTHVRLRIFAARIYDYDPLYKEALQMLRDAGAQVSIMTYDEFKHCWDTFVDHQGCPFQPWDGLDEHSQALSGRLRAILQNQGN
Chain of Phosphoethanolamine/phosphocholine phosphatase (Q8TCT1 whole entry): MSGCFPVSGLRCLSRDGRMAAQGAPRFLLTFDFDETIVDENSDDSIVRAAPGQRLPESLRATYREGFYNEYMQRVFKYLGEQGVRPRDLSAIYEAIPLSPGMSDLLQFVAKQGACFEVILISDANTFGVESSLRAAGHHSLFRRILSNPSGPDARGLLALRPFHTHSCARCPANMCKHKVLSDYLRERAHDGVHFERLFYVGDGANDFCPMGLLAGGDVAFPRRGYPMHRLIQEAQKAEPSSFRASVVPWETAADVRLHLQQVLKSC
Chain of Nonstructural protein 1 (Q194T2 whole entry): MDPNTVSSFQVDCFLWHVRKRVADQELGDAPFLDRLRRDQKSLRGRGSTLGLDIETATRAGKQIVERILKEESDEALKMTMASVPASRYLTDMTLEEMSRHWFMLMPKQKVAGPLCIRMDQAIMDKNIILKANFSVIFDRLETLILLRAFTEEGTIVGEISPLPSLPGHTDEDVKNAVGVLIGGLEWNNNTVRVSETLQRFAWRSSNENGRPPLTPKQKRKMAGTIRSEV
Chain of G-protein coupled receptor 55 (Q9Y2T6 whole entry): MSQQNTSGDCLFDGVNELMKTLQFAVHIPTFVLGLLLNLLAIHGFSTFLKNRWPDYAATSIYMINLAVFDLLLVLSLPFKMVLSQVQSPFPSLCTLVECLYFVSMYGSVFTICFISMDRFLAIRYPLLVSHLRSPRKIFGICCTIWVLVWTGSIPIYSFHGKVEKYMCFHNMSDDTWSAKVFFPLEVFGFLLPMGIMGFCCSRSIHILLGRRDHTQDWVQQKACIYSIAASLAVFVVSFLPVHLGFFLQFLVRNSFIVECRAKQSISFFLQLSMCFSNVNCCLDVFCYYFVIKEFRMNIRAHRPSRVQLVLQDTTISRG
Chain of Eukaryotic translation initiation factor 4E (P63073 whole entry, the tested form may be a part): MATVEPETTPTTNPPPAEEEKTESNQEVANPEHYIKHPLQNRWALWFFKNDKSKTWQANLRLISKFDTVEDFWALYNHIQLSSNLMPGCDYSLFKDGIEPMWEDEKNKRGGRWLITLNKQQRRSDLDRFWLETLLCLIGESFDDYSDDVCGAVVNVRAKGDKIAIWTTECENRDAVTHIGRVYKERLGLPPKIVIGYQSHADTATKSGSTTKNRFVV

In general, IC50 refers to the point on the concentration scale where inhibition reaches its midpoint. As for `Fc1cccc(Cl)c1/C=N/n1c(S)nnc1-c1cccnc1`, the IC50 is > 100 µM (inactive) in assay [1] and 2.73 µM (active) in assay [2].
A word on the EC50: it is the concentration giving half of the maximal effect. Regarding `CCOC(=O)c1ccc(N2CCN(c3ccccc3F)CC2)c(NC(=O)Nc2cccc(OC)c2)c1`, the concentration giving a half-maximal response (EC50) is > 100 µM (not active) in [3], 1.39 µM (active) in [4], > 60 µM (inconclusive) in assay [5] and > 100 µM (inactive) in [6]. Also, the half-maximal inhibitory concentration (IC50) in assay [7] was 6.54 µM (active); in [8], > 100 µM (inactive).
Turning to `COc1ccc(OCc2nnc(S)n2Cc2ccco2)cc1`, the IC50 in [1] is > 100 µM (inactive); in assay [2] it was 3.88 µM (active).
Consider `O=c1c2ccccc2sn1-c1cccc(C(F)(F)F)c1`, for which the values for the half-inhibitory concentration (IC50) (in assay [9]; on Phosphomannomutase 2; in assay [10]) were 23.7 µM (active), > 100 µM (inactive) and 11.6 µM (inactive), respectively.
As for `CC(=O)Oc1ccc2ccccc2c1C(NC(=O)Cc1ccccc1)c1ccccc1` (configuration not stated), in [11], the IC50 is 1.27 µM (active).
For `CCOc1ccc(N(CC(=O)O)S(=O)(=O)c2ccc(F)cc2)cc1`, the EC50 at Ion channel NompC was > 29.9 µM (inactive); on Mucolipin-3 it was > 29.9 µM (not active).
What is called AC50 is the concentration at which the activity in the assay is half-maximal. On to `COc1ccc2sc(NC(=O)c3ccco3)nc2c1`, for which the IC50 in assay [12] was 17.3 µM (active); in assay [13] it was 10.3 µM (active); in “cells [14]”, > 67.5 µM (inactive); in [15], > 67.5 µM (inactive). Also, the AC50 in [16] was > 52 µM (inactive); in assay [17] it was 7.49 µM (active); in assay [18], 8.55 µM (active).
Regarding `O=c1c2ccccc2sn1-c1cc(S(=O)(=O)N2CCOCC2)ccc1N1CCCC1`, the IC50 on Large T antigen is 11.7 µM (active); in [9] it was 7.51 µM (active); in [19], 14.3 µM (active); on Phosphomannomutase 2, 29.8 µM (active); in assay [10] it was 10.7 µM (inactive); in assay [20], 34.5 µM (inactive). Further, in assay [21], the IC50 was 11 µM (active).
As for `O=C(CCS(=O)(=O)c1ccc(F)cc1)Nc1nc(-c2ccccn2)cs1`, the CC50 in assay [22] is 21.1 µM (active); in assay [23], 23.6 µM (active); in [24], > 20 µM (active); in assay [25], 12 µM (active). For the same molecule, the values for the IC50 at Nonstructural protein 1 and in “cells [26]” were 21.5 µM (active) and 6.21 µM (active), respectively. Besides, in assay [27], the AC50 is 99.2 µM (active).
